Measurements taken from patent US8614213B2 (Novartis AG, priority 2008, dated 2013).

Target: human recombinant CRF-1 receptor (Homo sapiens (Human), UniProt P34998)
Test: CRF-1 receptor antagonism, HTRF cAMP assay in CHO cells in the presence of 1 nM CRF
Format: cell-based
Details: CHO cells expressing human recombinant CRF-1
Protocol: The CRF-1 or CRF-2a receptor antagonistic activity of the agents of the invention has been determined in vitro in the following assay:
Chinese hamster ovary (CHO) cells expressing either the human recombinant CRF-1 or CRF-2a receptors (Chen et al., Proc Natl Acad Sci USA 90, 8967-8971, 1993; Liaw et al., Endocrinology 137, 72-77, 1996) are propagated in Dulbecco's modified Eagle medium supplemented with 10% foetal calf serum, non-essential amino acids, 100 U/ml penicillin, 100 mg/l streptomycin and 1 g/l geneticin (G418). For cyclic AMP determinations the Homogeneous Time-Resolved Fluoresce (HTRF) cAMP dynamic 2 kit (Cisbio International, France) was used as per manufacturers' instructions. CHO cells, previously cryopreserved, were thawed, centrifuged for 7 mins at 1200 rpm and resuspended in serum free media, then pipetted out onto clear bottomed black tissue culture treated 384-well microtitre plates (Corning Inc, US) at 2,000 cells per well. Compounds of the invention, prepared in DMSO, and subsequently diluted 50 fold in assay buffer (1× Hanks balanced salt solution, 0.2% (w/v) bovine serum albumin, 1.7 mM isobutylmethylxanthine and 10 mM Hepes, pH7.4) are then added onto the cell containing plate where a further 2 fold dilution is performed and incubated for 15 min. Following incubation, buffer containing a 5 times final concentration of agonist is added to the plate and incubated for 30 min. Finally, d2 dye labelled cAMP and cryptate labeled anti-cAMP antibody, both made in lysis buffer, are added to the plate followed by a settling period of 1 hour. During the settling period cAMP produced by the cells competes with the d2 labelled cAMP for the anti-cAMP cryptate. The plate is read on the Pherastar (BMG, Germany). […] Values represented by a change in arbitrary fluorescence units are converted into cAMP concentrations by use of a standard curve the reagents for which are supplied with the kit. […] IC50 values of antagonists are calculated by fitting the percent inhibition of the effect of CRF by increasing concentrations of the antagonists. […]

human recombinant CRF-1 receptor, sequence (P34998 24-415): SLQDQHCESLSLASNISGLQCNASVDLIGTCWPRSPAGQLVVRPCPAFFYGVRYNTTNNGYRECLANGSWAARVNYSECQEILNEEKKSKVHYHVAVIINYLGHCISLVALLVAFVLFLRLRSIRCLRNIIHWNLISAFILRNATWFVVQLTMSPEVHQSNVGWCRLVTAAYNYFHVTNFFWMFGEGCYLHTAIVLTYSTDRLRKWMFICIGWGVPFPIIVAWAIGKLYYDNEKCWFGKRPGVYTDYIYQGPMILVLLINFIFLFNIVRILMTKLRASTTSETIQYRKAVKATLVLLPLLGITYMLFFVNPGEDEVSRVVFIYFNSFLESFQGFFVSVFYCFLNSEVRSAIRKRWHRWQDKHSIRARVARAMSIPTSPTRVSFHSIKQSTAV

Compound	IC50
2-Chloro-N-(2RS-methyl-4-phenylaminomethyl-cyclohexyl)-5-trifluoromethyl-benzamide [Example 16]	51 nM
Cc1cc(N2CCNC2=O)nn1C[C@H]1CC[C@H](NC(=O)c2cc(C(F)(F)F)ccc2Cl)CC1 [Example 21.5, 2-Chloro-N-{4-[5-methyl-3-(2-oxo-imi-dazolidin-1-yl)-pyrazol-1-ylmethyl]-cyclohexyl}-5-trifluoromethyl-ben zamide]	157 nM
Cc1nn(C[C@H]2CC[C@H](NC(=O)c3cc(C(F)(F)F)ccc3Cl)CC2)c(C)c1C [Example 21.11]	140 nM
